From patent US20090197906A1, “REVERSION OF MALIGNANT PHENOTYPE WITH 9-HYDROXY ELLIPTICINE DERIVATIVES” (priority 2006, published 2009)

What was measured:
[1] = system: actin in NIH 3T3 EF extract; assay: fluorescence anisotropy assay of actin dynamics in cell extract; format: biochemical; conditions: for effect on actin-F elongation rate constant and actin-F steady state value: NIH 3T3 EF cytosolic fractions; for k (rate constant of F-actin elongation) / Δ mA (anisotropy enhancement, steady state F-actin): malignant NIH 3T3 EF extract, compound at 200 nM
Method: Actin dynamics is known to be impaired in tumor cells with a subsequent decrease of F-actin to G-actin ratio. Actin dynamics has been quantified in tumor cell extracts using the fluorescence anisotropy assay which gains access to rate constant of F-actin elongation (k) and steady state concentration of F-actin (Δ mA).
All reactions were carried out at 22° C. and fluorescence anisotropy signal was recovered at 520 nm with excitation at 490 nm in a Beacon 2000 (Panvera). Alexa 488 actin (Molecular Probes) was centrifuged at 35 000 rpm for 2 h at 4° C. to sediment residual actin polymers in a Beckman L5-50B ultracentrifuge. […] 80% of the supernatant was withdrawn; the concentration was defined through fluorescence measurements (excitation at 490 nm and signal recovering at 520 nm). The ultracentrifuged actin concentration was calculated using the non ultracentrifuged Alexa 488 actin as a standard. The supernatant was aliquoted, frozen in liquid nitrogen and stored at −80° C.
Before experiment, an aliquot of ultracentrifuged Alexa 488 actin was diluted to a concentration of […] in G buffer (5 mM Tris pH 8.1, 2 mM CaCl2, 0.2 mM DTT, 0.2 mM ATP). 3 μl of diluted Alexa 488 actin was mixed in 168 μl of G buffer and actin monomers anisotropy was measured before the addition of 4 μl of polymerisation buffer (2.5 M KCl, 50 mM MgCl2, 25 mM ATP), 5 μl of G buffer in the presence or in the absence of the chemical molecule and 20 μl cellular extract of normal NIH 3T3 cells or malignant NIH 3T3 EF cells at 2 mg/ml. The final concentration of Alexa 488 actin was 4 nM. The ratio of unlabelled to labelled actin was about 140/4 nM. Measurements were made each 10 sec for 200 sec. Actin monomers anisotropy value was subtracted, yielding the anisotropy enhancement (Δ mA). The data were fitted with the equation Y=Ymax. [1−exp(−K.X)]. The curves start at zero and ascend to Ymax that corresponds to the steady state anisotropy value (Δ mA eq), with a rate constant K. Y is anisotropy values of which monomers anisotropy is subtracted and X is the time.

NIH 3T3 EF cells [2] = assay: F-actin network rescue, FITC-phalloidin fluorescence microscopy; format: cell-based; conditions: non cytotoxic concentrations (100 nM and 200 nM), three days
Method: Malignant NIH 3T3 EF cells were seeded onto glass cover slips at a density of 2000 cells per cm^2. The next day, BA016DD537 was applied to NIH 3T3 EF cells at various non cytotoxic concentrations (100 nM and 200 nM). Three days later, cells were fixed for 10 min in PBS containing 3.7% formaldehyde at 4° C. before examination with a fluorescence microscope. The formaldehyde solution was neutralized with 50 mM NH4Cl. Extraction was carried out for 4 min with 0.4% Triton X-100 in PBS. Cells were incubated for 1 h with blocking buffer (3% bovine serum albumin in PBS) and then for 20 min with FITC-phalloidin (Sigma) at room temperature. Cover slips were mounted in Vectashieldk (Zymed) and observed through a fluorescence microscope (Nikon).

NIH 3T3 EF cells [3] = assay: wound healing assay (cell motility); format: cell-based; conditions: non cytotoxic concentrations
Method: Wound healing assay was performed to evaluate the effect of BA016DD537 on motility of malignant NIH 3T3 EF cells and melanoma cell lines B16F10 and B16BL6. All the cells were incubated at 37° C. in a humidified 5% CO2 atmosphere. About 100 000-200 000 cells were seeded in a 6-well culture plate and BA016DD537, at the different concentrations, was added 24 hours later. Cells were grown for 3 days to confluence about 90-95% and small scratch-wounds (about 200 μm-1 mm width) were made with a pipette tip. Cell debris were removed, then the cultures were incubated in complete medium for 10 h in the presence of the same concentration of BA016DD537. Then, the cells were fixed for 10 min in PBS containing 3.7% formaldehyde at 4° C.

[4] = system: B16BL6 melanoma cell line; assay: MTT cell viability, combination with retinoids; format: cell-based; conditions: 10 nM retinoid only, 3 days
Method: The ex vivo cell viability inhibition by BA016DD537 in the presence of the retinoids 13CRA and ATRA was tested against B16BL6 melanoma cell line using the 3-(4,5 dimethylthiazol-2-yl)-2,5-diphenyl-2H-tetrazolium bromide (MTT) calorimetric assay.
(§1) About 1000 cells were seeded in a 96-well culture plate 24 hours before adding increasing concentrations of BA016DD537, from 1 pM to 100 pM, in the absence or in the presence of 10 nM of retinoids. The plate was incubated at 37° C. for 3 days. 10 μl MTT stock solution (5 mg/ml in phosphate buffer saline) was added to 90 μl of complete medium in each well, the incubation was continued for 3 h at 37° C. 100 μl of lysis buffer (20% sodium dodecyl sulfate, 10 mM HCl, 1×PBS) was added to each well, and the plate was incubated overnight. The absorbance was determined using an Integrated EIA Management System (Labsystem) at a wavelength of 570 nm.

B16F10 [5] = assay: MTT cell proliferation assay; format: cell-based, murine; conditions: Mus musculus, B16-F10; B16F10 (Example 11); read-out: IC50 (MTT Test-72 h)
Method: Growth studies were performed using the [3-(4,5 dimethylthiazol-2-yl)-2,5-diphenyl-2H-tetrazolium bromide] (Sigma) calorimetric assay.
as §1, with “1500 to 5000 cells, according to the cell line,” for “1000 cells”, “BA016DD537” for “BA016DD537, from 1 pM to 100 pM, in the absence”, “BA016FZ539.” for “in the presence of 10 nM of retinoids.”, “(10%” for “(20%”, “1% HCl 1N; pH 4.7)” for “10 mM HCl, 1×PBS)”, “nm. The proliferation rates were calculated from the OD readings using the untreated cells as 100%.” for “nm.”
(§2) Growth studies were performed using both MTT and SRB calorimetric assay (Sigma). About 1500 B16F10 or 3000 pancreatic cells (MIA PaCa-2 and PANC1) were seeded in a 96-well culture plate before adding increasing concentrations of monomesylate or bimesylate.
(§3) The plates were incubated at 37° C. for 3 days and then were treated depending on SRB or MTT protocols (see material and methods).
(§4) In these two cases, the proliferation rates were calculated from the OD readings using the untreated cells as 100%.

B16F10 [6] = assay: cloning assay in methylcellulose (colony formation); format: cell-based, murine; conditions: Mus musculus, B16-F10, 216 h; B16F10, clones counted after 9 days (Example 11); read-out: B16F10 Inhibition of colony formation IC50
Method: Cells were embedded in complete culture medium supplemented with 0.8% methylcellulose (Methocel MC4000, Sigma), seeded in triplicate into 35-mm dishes (Greiner Bio-one Ref 627102, Dominique Dutscher) and incubated at 37° C. in a humidified 5% CO2 atmosphere. The number of cells seeded was 1000 cells per dish. After one to three weeks, according to cell lines, macroscopic clones were counted.
Cells were embedded in complete culture medium supplemented with 0.8% methyl-cellulose (Methocel MC4000, Sigma), seeded in triplicate into 35-mm dishes and incubated at 37° C. in a humidified 5% CO2 atmosphere. The number of cells seeded was 1000 cells per dish. After 9 days, macroscopic clones of murine melanoma cell line B16F10 were counted.

Mia Paca-2 = assay: SRB (sulforhodamine B) cell proliferation assay; format: cell-based, human; conditions: Homo sapiens; Mia Paca-2 (Example 11); read-out: IC50 (SRB Test-72 h)
Method: (§5) After an incubation period, cell monolayers are fixed with 10% (wt/vol) trichloroacetic acid and stained for 30 min, after which the excess dye is removed by washing repeatedly with 1% (vol/vol) acetic acid. The protein-bound dye is dissolved in 10 mM Tris base solution for optic density determination (OD) at 510 nm using a microplate reader.
(§6) The proliferation rates were calculated from the OD readings using the untreated cells as 100%.
(§7) The effects BA016FZ539 on the growth of MIA PaCa-2 and PANC-1 pancreatic cells were tested over a range of concentrations from 500 μM to 0.16 μM and measured by using the SRB calorimetric assay.
(§8) About 5000 MIA PaCa-2 or PANC-1 cells were seeded in a 96-well culture plate while adding increasing concentrations of BA016FZ539.
as §2, §3, §4

PANC-1 = assay: SRB (sulforhodamine B) cell proliferation assay; format: cell-based, human; conditions: Homo sapiens; PANC-1 (Example 11); read-out: IC50 (SRB Test-72 h)
Method: as §5, §6, §7, §8, §2, §3, §4

B16F10 [7] = assay: SRB (sulforhodamine B) cell proliferation assay; format: cell-based, murine; conditions: Mus musculus, B16-F10; B16F10 (Example 11); read-out: IC50 (SRB Test-72 h)
Method: as §2, §3, §4

Melanoma B16 cells = assay: antitumor activity, i.p. grafted B16 melanoma, survival; format: in vivo, B6D2F1 mice
Method: Antitumor activity against B16 melanoma can be assessed in mice using i.p. graft of malignant cells followed by i.p. treatment. This type of protocol which by-pass various biodisponibility parameters gives information roughly on the maximal antitumor activity which can be expected for a given tumor.
Melanoma B16 cells (4×10^5) were injected in B6D2F1 mice using i.p. route at J0. Drugs, dissolved in sterile distilled water (0.5 ml) were injected daily using as well i.p. route from J1 to J9 at various concentrations. Control mice received distilled water only according the same protocol.
Treated and control mice were counted daily. TIC (mean survival of treated mice/mean survival of control mice) was calculated at J9.

With `CC(=O)[O-].CC[n+]1ccc2c(C)c3[nH]c4ccc(O)cc4c3c(C)c2c1` [BA016CA107, 9-hydroxy-2(beta-ethyl)-ellipticinium acetate] the “effect on actin-F elongation rate constant and actin-F steady state value” [1] was “do not increase the actin-F elongation rate constant and the actin-F steady state value”, the “k (rate constant of F-actin elongation)” value [1] was 0.0280 s⁻¹ and the “Δ mA (anisotropy enhancement, steady state F-actin)” value [1] was 42.14. The “rebuilding of actin network / morphology” value (NIH 3T3 EF cells [2]) was “neither 9-hydroxy-2-ethyl)-ellipticinium acetate, nor 9-hydroxy-2(methyl)-ellipticinium acetate (Celiptium) were found active” and the “migration of treated malignant cells into the wound” value (NIH 3T3 EF cells [3]) was “migrate in the same way as non treated malignant cells”.

In the case of `CC1=C(/C=C/C(C)=C/C=C/C(C)=C\C(=O)O)C(C)(C)CCC1` [13CRA, 13-cis-retinoic acid, reference compound], the “cell viability inhibition (MTT)” value [4] is reported as “No cell viability inhibition”.

`Cc1c2cc[n+](CCN3CCCCC3)cc2c(C)c2c1[nH]c1ccc(O)cc12` [Bimesylate] was tested, and the IC50 (B16F10 [5]) was 2800 nM, the IC50 (B16F10 [6]) was 21 nM and the IC50 (Mia Paca-2) was 2500 nM. The IC50 (PANC-1) was 37600 nM and the IC50 (B16F10 [7]) was 1800 nM.

With `CC1=C(/C=C/C(C)=C/C=C/C(C)=C/C(=O)O)C(C)(C)CCC1` [ATRA, all-transretinoic acid, reference compound] the “cell viability inhibition (MTT)” value [4] was “No cell viability inhibition”.

In the case of `Cc1c2cc[n+](C)cc2c(C)c2c1[nH]c1ccc(O)cc12` [BA016CA77, 9-hydroxy-2(beta-methyl)-ellipticinium acetate], the “effect on actin-F elongation rate constant and actin-F steady state value” [1] is reported as “do not increase the actin-F elongation rate constant and the actin-F steady state value”, the “k (rate constant of F-actin elongation)” value [1] is reported as 0.0416 s⁻¹ and the “Δ mA (anisotropy enhancement, steady state F-actin)” value [1] is reported as 38.33. The “rebuilding of actin network / morphology” value (NIH 3T3 EF cells [2]) was “neither 9-hydroxy-2-ethyl)-ellipticinium acetate, nor 9-hydroxy-2(methyl)-ellipticinium acetate (Celiptium) were found active”, the “migration of treated malignant cells into the wound” value (NIH 3T3 EF cells [3]) was “migrate in the same way as non treated malignant cells” and the “T/C (%) (mean survival of treated mice/mean survival of control mice)” value (Melanoma B16 cells; 0.125 mg/kg/inj. i.p. daily J1 to J9) was 121%. For the same compound, the “T/C (%) (mean survival of treated mice/mean survival of control mice)” value (Melanoma B16 cells; 0.25 mg/kg/inj. i.p. daily J1 to J9) was 122%, the “T/C (%) (mean survival of treated mice/mean survival of control mice)” value (Melanoma B16 cells; 0.5 mg/kg/inj. i.p. daily J1 to J9) was 58% and the “antitumor activity against B16 melanoma (T/C>125% = significant)” value (Melanoma B16 cells; i.p. graft, i.p. treatment) was “no significant antitumor activity”.
